The values that follow are results of earlier work, collected in publication PMC10425210 (The Journal of Clinical Investigation, 2023).

Molecules are shown by their SMILES.

One data set deals with SHIV109CP3. On the set-up: method as in PMID 31175822. As to conditions: cited from earlier work.
Details of data set [1]: method as in PMID 29008798. The note with it: cited from earlier work.

For `C#C[C@]1(CO)O[C@@H](n2cnc3c(N)nc(F)nc32)C[C@@H]1O` [islatravir], the prevention of infection entry in the data set on SHIV109CP3 is listed as “proven efficacy at preventing infection”. Also, in data set [1], the “adverse finding during clinical development” value is “unanticipated lymphopenia”.
